± gives the expanded uncertainty stated by the source. Blank lines part the entries; values can stand above or below the compound they belong to.
Conditions: Liquid, Ebulliometric method (Recirculating still)

SMILES: CC=CCC#N [3-pentenenitrile]
vapor or sublimation pressure (393.48 K): 50 ± 1 kPa
vapor or sublimation pressure (418.25 K): 100 ± 2 kPa

SMILES: C=CC1CC=CCC1 (stereo unspecified) [4-ethenylcyclohexene]
vapor or sublimation pressure (377.75 K): 50 ± 1 kPa
vapor or sublimation pressure (401.42 K): 100 ± 2 kPa

vapor or sublimation pressure (367.43 K): 50 ± 1 kPa
vapor or sublimation pressure (392.75 K): 100 ± 2 kPa
SMILES: CC=C(C)C#N [2-methyl-2-butenenitrile]
